The text below walks through data of patent publication EP4748841A1, “BICYCLO[5,6] IMIDAZOLE PYRIMIDONE DERIVATIVE AND PREPARATION METHOD THEREFOR AND USE THEREOF” (Shujing Biopharma Co., Ltd, priority 2023, dated 2025).

Each structure is given as a SMILES string.

In the assay the target is T1, Lp-PLA2 (Homo sapiens, UniProt Q13093).
T1 construct: from tissue; host or cells: pooled (mixed) human plasma
T1 sequence (Q13093 22-441): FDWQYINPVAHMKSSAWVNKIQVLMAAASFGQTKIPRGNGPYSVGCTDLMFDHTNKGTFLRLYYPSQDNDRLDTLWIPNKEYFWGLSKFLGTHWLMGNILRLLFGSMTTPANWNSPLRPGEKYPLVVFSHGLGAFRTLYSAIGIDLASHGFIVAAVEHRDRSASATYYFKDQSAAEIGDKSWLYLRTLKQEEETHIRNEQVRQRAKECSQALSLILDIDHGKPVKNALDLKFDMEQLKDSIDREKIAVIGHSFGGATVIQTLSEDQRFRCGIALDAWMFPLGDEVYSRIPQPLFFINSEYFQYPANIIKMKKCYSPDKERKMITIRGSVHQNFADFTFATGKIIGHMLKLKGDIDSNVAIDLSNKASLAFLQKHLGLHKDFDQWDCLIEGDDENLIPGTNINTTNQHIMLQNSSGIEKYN
Kind of assay: Inhibitory activity against Lp-PLA2 in human plasma (Thio-PAF assay). Particulars: 2-thio-PAF substrate, 30 min pre-incubation. It counts as biochemical. An excerpt:
The literature reports that 2-Thio-PAF, commercially available from Cayman Chemical, is a substrate for PAF hydrolase (PAF-AH). After its cleavage by PAF-AH, the free thiol released at the sn-2 position can react with 7-diethylamino-3-(4'-maleimidophenyl)-4-methylcoumarin (CPM), resulting in increased fluorescence. Thus, Lp-PLA2 inhibitors can prevent this cleavage, and no increase in fluorescence is observed. In this experiment, the human plasma assay employed the same thioester analog of PAF as described in the recombinant human Lp-PLA2 assay described above.
• (1) The Thio-PAF assay was performed as a quenched 75 µL assay. A compound source plate was prepared by preparing 1:4 (v/v) serial diluents of the compounds in pure DMSO in a 96-well microplate. • (2) 1 µL of each test compound from the compound source plate was transferred into a 96-well microplate containing 40 µL of pre-thawed mixed human plasma by a Rainin multichannel pipette, and the plasma was thawed at room temperature and centrifuged at 2000 rpm for 10 min. The plate was shaken on a microplate shaker for 2 min for uniform mixing. • (3) After 30 min of pre-incubation at room temperature, 10 µL of a substrate solution was added sequentially to the 96-well microplate described above by a Rainin multichannel pipette. The substrate solution contained 2.5 mM 2-thio-PAF (from an ethanol mother liquor), 32 µM CPM (from a DMSO mother liquor), and 3.2 mM N-ethylmaleimide (freshly prepared in DMSO for each experiment) in assay buffer (pH 7.4) consisting of 50 mM HEPES, 150 mM NaCl, and 1 mM CHAPS. After the addition was completed, the plate was immediately shaken for 2 min, and the reaction time for the substrate was 4 min in total. After the reaction was completed, the reaction was quenched with 25 µL of an aqueous solution of 5% trifluoroacetic acid. The plate was centrifuged at 1000 rpm for 1 min. • (4) The FLINT signal (FLINT380/480) was read using a microplate reader. • (5) IC50 data, curve fitting, and QC analyses were performed using GraphPad Prism 8.0 and Excel.

As for `O=c1nc(OCc2cc(F)c(Oc3ccnc(C(F)(F)F)c3)c(F)c2)cc2n1CC1CCN21` (stereo not shown) [Example 34], the IC50 is 5.2 nM.
The same measure for `O=c1nc(OCc2ccc(Oc3cnc(C(F)(F)F)nc3)c(F)c2)cc2n1CC1CCN21` (stereo not shown) [Example 51]: 21.2 nM; for `N#Cc1cc(COc2cc3n(c(=O)n2)CC2CCN32)ccc1Oc1ccc(Cl)c(C(F)(F)F)c1` (stereo not shown) [Example 39, 2-(4-Chloro-3-(trifluoromethyl)phenoxy)-5-(((1-oxo-6,7,7a,8-tetrahydro-1H-azeto[1',2':3,4]imidazo[1,2-c]pyrimidin-3-yl)oxy)methyl)benzonitrile]: 3.9 nM; for `O=c1nc(OCc2ccc(Oc3ccc(F)c(C(F)(F)F)c3)nc2)cc2n1CC1CCN21` (stereo not shown) [Example 41, 3-((6-(4-Fluoro-3-(trifluoromethyl)phenoxy)pyridin-3-yl)methoxy)-6,7,7a,8-tetrahydro-1H-azeto[1',2':3,4]imidazo[1,2-c]pyrimidin-1-one]: 292 nM.
In the case of `O=c1nc(OCc2ccc(Oc3ccc(C(F)(F)F)nc3)c(F)c2)cc2n1CC1CCN21` (stereo not shown) [Example 1], it took 3.9 nM to reach half-maximal inhibition (IC50).
`O=c1nc(OCc2ccc(Oc3ccccc3)nc2)cc2n1CC1CCN21` (stereo not shown) [Example 16, 3-((6-Phenoxypyridin-3-yl)methoxy)-6,7,7a,8-tetrahydro-1H-azeto[1',2':3,4]imidazo[1,2-c]pyrimidin-1-one] yielded an IC50 of 2740 nM.
`O=c1nc(OCc2ccc(F)cc2)cc2n1CC1CCN21` (stereo not shown) [Example 7, 3-((4-Fluorobenzyl)oxy)-6,7,7a,8-tetrahydro-1H-azeto[1',2':3,4]imidazo[1,2-c]pyrimidin-1-one]: the IC50 is 68.7 nM.
As to `O=c1nc(OCc2cnc(Oc3ccc(Cl)c(C(F)(F)F)c3)c(F)c2)cc2n1CC1CCN21` (stereo not shown) [Example 38, 3-((6-(4-Chloro-3-(trifluoromethyl)phenoxy)-5-fluoropyridin-3-yl)methoxy)-6,7,7a,8-tetrahydro-1H-azeto[1',2':3,4]imidazo[1,2-c]pyrimidin-1-one], the IC50 came to 56.3 nM.
The compound `Cc1ccc(COc2cc3n(c(=O)n2)CC2CCN32)cc1` (stereo not shown) [Example 8, 3-((4-Methylbenzyl)oxy)-6,7,7a,8-tetrahydro-1H-azeto[1',2':3,4]imidazo[1,2-c]pyrimidin-1-one] had an IC50 of 2430 nM.
`O=c1nc(OCc2ccc(F)c(F)c2)cc2n1CC1CCN21` (stereo not shown) [Example 54, 3-((3,4-Difluorobenzyl)oxy)-6,7,7a,8-tetrahydro-1H-azeto[1',2':3,4]imidazo[1,2-c]pyrimidin-1-one] yielded an IC50 of 30.3 nM.
`O=c1nc(OCc2ccc(Oc3ccc(F)c(F)c3)c(F)c2)cc2n1CC1CCN21` (stereo not shown) [Example 24, 3-((4-(3,4-Difluorophenoxy)-3-fluorobenzyl)oxy)-6,7,7a,8-tetrahydro-1H-azeto[1',2':3,4]imidazo[1,2-c]pyrimidin-1-one] displayed an IC50 of 12.7 nM.
Compound `N#Cc1ccc(COc2cc3n(c(=O)n2)CC2CCN32)cc1` (stereo not shown) [Example 28, 3-((4-Cyanobenzyl)oxy)-6,7,7a,8-tetrahydro-1H-azeto[1',2':3,4]imidazo[1,2-c]pyrimidin-1-one] displayed an IC50 of 892 nM. Against the preceding compound, the IC50 is about 70-fold higher.
The same measure for `Cc1ccc(Oc2c(F)cc(COc3cc4n(c(=O)n3)CC3CCN43)cc2F)cn1` (stereo not shown) [Example 36]: 35.8 nM; for `O=c1nc(OCc2ccc(Oc3ccnc(C(F)(F)F)c3)c(F)c2)cc2n1CC1CCN21` (stereo not shown) [Example 23]: 4.3 nM; for `N#Cc1cc(COc2cc3n(c(=O)n2)CC2CCN32)ccc1Oc1cccc(C(F)(F)F)c1` (stereo not shown) [Example 22, 5-(((1-Oxo-6,7,7a,8-tetrahydro-1H-azeto[1',2':3,4]imidazo[1,2-c]pyrimidin-3-yl)oxy)methyl)-2-(3-(trifluoromethyl)phenoxy)benzonitrile]: 4.6 nM.
The same measure for `O=c1nc(OCc2cc(F)c(Oc3ccnc(C(F)(F)F)c3)c(F)c2)cc2n1C[C@@H]1CCN21` [Example 34-S]: 52.3 nM.
With `Cc1ncc(Oc2c(F)cc(COc3cc4n(c(=O)n3)CC3CCN43)cc2F)cn1` (stereo not shown) [Example 44], half-maximal inhibition (IC50) was put at 25.6 nM.
`N#Cc1cc(Oc2ccc(COc3cc4n(c(=O)n3)CC3CCN43)cc2F)ccc1Cl` (stereo not shown) [Example 53, 2-Chloro-5-(2-fluoro-4-(((1-oxo-6,7,7a,8-tetrahydro-1H-azeto[1',2':3,4]imidazo[1,2-c]pyrimidin-3-yl)oxy)methyl)phenoxy)benzonitrile] showed a half-maximal inhibitory concentration (IC50) of 107 nM.
Consider `O=c1nc(OCc2ccc(Oc3ccccc3)cc2)cc2n1CC1CCN21` (stereo not shown) [Example 12, 3-((4-Phenoxybenzyl)oxy)-6,7,7a,8-tetrahydro-1H-azeto[1',2':3,4]imidazo[1,2-c]pyrimidin-1-one], for which the IC50 is 2090 nM. Compared with the last compound, the IC50 is about 20-fold higher.
`Cn1cc(Oc2c(F)cc(COc3cc4n(c(=O)n3)CC3CCN43)cc2F)cn1` (stereo not shown) [Example 45] showed an IC50 of 203 nM.
Take `O=c1nc(OCc2cc(F)c(Oc3ccc(C(F)(F)F)nc3)c(F)c2)cc2n1CC1CCN21` (stereo not shown) [Example 52]: 4.3 nM corresponded to half-maximal inhibition (IC50).
`Cc1ccc(Oc2c(F)cc(COc3cc4n(c(=O)n3)C[C@@H]3CCN43)cc2F)cn1` [Example 36-S]: half-maximal inhibition (IC50) required 96.4 nM. This IC50 lies about 22-fold higher than the previous one.
On to `N#Cc1cc(COc2cc3n(c(=O)n2)CC2CCN32)ccc1Oc1ccc(C(F)(F)F)cn1` (stereo not shown) [Example 21, 5-(((1-Oxo-6,7,7a,8-tetrahydro-1H-azeto[1',2':3,4]imidazo[1,2-c]pyrimidin-3-yl)oxy)methyl)-2-((5-(trifluoromethyl)pyridin-2-yl)oxy)benzonitrile], for which the IC50 was found to be 200 nM.
The compound `Cc1ccc(Oc2c(F)cc(COc3cc4n(c(=O)n3)C[C@H]3CCN43)cc2F)cn1` [Example 36-R] showed an IC50 of 15.9 nM.
The same measure for `O=c1nc(OCc2ccc(Oc3ccc(Cl)c(C(F)(F)F)c3)cc2)cc2n1CC1CCN21` (stereo not shown) [Example 50, 3-((4-(4-Chloro-3-(trifluoromethyl)phenoxy)benzyl)oxy)-6,7,7a,8-tetrahydro-1H-azeto[1',2':3,4]imidazo[1,2-c]pyrimidin-1-one]: 12.6 nM.
